Test results taken from patent US20260166313A1, “WIRELESS PATCH SYSTEM FOR TRANSDERMAL, TRANSMUCOSAL AND DENTAL ELECTRICAL DRUG DELIVERY” (priority 2015, published 2026).

Experiment: ACEK effect (DEP, ACEO, ACET) on drug particles over the inductively powered IDE, observed by light microscopy
Assay type: physicochemical
Details: for ACET effect detection / negative DEP (nDEP) detection: any frequency range; for negative DEP (nDEP) detection: DI water
Excerpt: In order to study the functionality of the patch in terms of a demodulation circuit and ACEK effect, a very simple set-up was constructed which is shown in FIG. 2C. The experimental set-up includes the dental patch, an optical microscope, AC waveform generators, a digital oscilloscope and some probe connectors. A microchamber was sealed over the IDE to hold the solution (FIG. 2C). […] The movement of particles was observed by an optical microscope NIKON ECLIPSE LV100 (Nikon Instruments, Inc., Melville, New York, United States of America) and the images from the microscope were acquired by a Roper Scientific (Tucson, Arizona, United States of America) digital camera and subsequently transferred to a computer. An AM signal with the amplitude of 10 V was applied to the primary coil. The AM signal applied to the primary coil was generated by two Agilent Arbitrary Waveform Generators (model 33220A). The carrier signal frequency was 8 MHz. The separation between primary and secondary coil is 10 mm. An Agilent Mixed Signal Oscilloscope (model MSO6012A) was used to record the demodulated signal. […] The frequency of the modulating signal was continuously swept in order to find an appropriate frequency at which ACEK effect occurs. […] The ACEK effect on Tetracycline, Acetaminophen, Benzocaine and Lidocaine was studied.

Row | SMILES | ACET effect detection | negative DEP (nDEP) detection | frequency of maximum ACEO vortices (field 10 Vpp/mm) [Hz] | frequency of maximum ACEO vortices (field 15 Vpp/mm) [KHz]
1 | CCN(CC)CC(=O)Nc1c(C)cccc1C [lidocaine] | No nDEP or ACET effects were detected | No nDEP or ACET effects were detected | 500 | 
2 | CC(=O)Nc1ccc(O)cc1 [acetaminophen] |  | No negative DEP (nDEP) was detected |  | 
3 | CCOC(=O)c1ccc(N)cc1 [benzocaine] | No nDEP or ACET effects were detected | No nDEP or ACET effects were detected |  | 1
